Molecular target: T1, Kv1.5 (Homo sapiens, UniProt P22460)
T1 construct: expressed in transfected cells; host or cells: CHO cells
Assay: Kv1.5 inhibition by patch clamp technique
Format: cell-based
Settings: inhibitors of Kv1.5
Description: The pharmacological profile of the potassium channel inhibitory activity of the compounds of the present invention can be readily assessed by those skilled in the art using routine experimentation, such as the procedures and techniques illustrated in the examples which follow. Assays for assessing the activity of particular compounds may employ cells stably transfected to express a specific potassium channel, as well as native mammalian cells. In particular, stable transfected cells, transfected to express a specific potassium channel, which have been treated with a voltage dependent fluorescent dye, such as bis-(1,3-dibutylbarbituric acid) trimethine oxonol, can be used to gauge the inhibitory activity of potassium channel inhibitor compounds, possibly in comparison to known inhibitors. Alternatively, such cells can be primed with a detectible species, such as 86Rb, and then challenged with a particular compound, under conditions otherwise suitable for activating the potassium channel, to assess the potassium inhibitory activity of the compound. The potassium channel inhibitory activity of a compound also can be determined using isolated mammalian cells and the whole cell configuration of the known patch clamp technique (Hamill et al., Pflugers Archiv 391:85, 1981). These and other known techniques can be readily employed by those skilled in the art to assess the activity level of the potassium channel inhibitor compounds of the present invention.
The cloning, construction and testing of CHO cells that express human voltage-gate potassium channels are described in prior U.S. patent application Ser. No. 08/893,160 (published as WO 98/04521, see also U.S. Pat. No. 6,083,986), as are assays for measuring ^86rubidium efflux from cell monolayers; fluorescence measurement of cell membrane potential; electrophysiological studies and lymphocyte proliferation studies, all of which are incorporated herein by reference.
The efficacy of various compounds of the present invention as inhibitors of Kv1.5 are shown in Table 2 (using the known patch clamp techniques cited above and described in detail in WO 98/04521 (see also U.S. Pat. No. 6,083,986), the disclosure of which is incorporated herein by reference)

T1 sequence (P22460 whole entry): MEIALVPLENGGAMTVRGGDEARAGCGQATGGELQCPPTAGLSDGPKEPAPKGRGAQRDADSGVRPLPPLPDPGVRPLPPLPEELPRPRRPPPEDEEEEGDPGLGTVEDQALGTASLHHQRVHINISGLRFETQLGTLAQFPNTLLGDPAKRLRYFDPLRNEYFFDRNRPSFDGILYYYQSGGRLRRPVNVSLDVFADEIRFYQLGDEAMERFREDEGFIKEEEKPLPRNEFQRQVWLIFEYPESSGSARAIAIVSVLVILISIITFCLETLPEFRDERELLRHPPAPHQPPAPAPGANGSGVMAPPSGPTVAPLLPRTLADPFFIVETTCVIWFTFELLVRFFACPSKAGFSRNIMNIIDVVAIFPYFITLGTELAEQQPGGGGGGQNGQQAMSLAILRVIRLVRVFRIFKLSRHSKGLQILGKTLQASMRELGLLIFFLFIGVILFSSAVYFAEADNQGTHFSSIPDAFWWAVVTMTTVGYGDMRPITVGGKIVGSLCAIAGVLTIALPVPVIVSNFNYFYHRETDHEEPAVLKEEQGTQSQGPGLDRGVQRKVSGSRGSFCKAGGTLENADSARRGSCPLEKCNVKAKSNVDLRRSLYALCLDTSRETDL

| Structure (SMILES) | inhibition at 0.1 µM [%] |
| --- | --- |
| CCc1ccc(S(=O)(=O)NC2CCc3ccc(Nc4ncccc4NC(=O)CCc4ccccc4)cc32)cc1 (stereo not shown) [Compound 1] | 46 |
| C=CCNC(=O)c1cccnc1Nc1ccc2c(c1)C(NS(=O)(=O)c1ccc(CC)cc1)CC2 (stereo not shown) [Compound 26] | 38 |
| C#CCNC(=O)c1cccnc1Nc1ccc2c(c1)C(NS(=O)(=O)c1ccc(CC)cc1)CC2 (stereo not shown) [Compound 27] | 43 |
| CCCNC(=O)c1cccnc1Nc1ccc2c(c1)C(NS(=O)(=O)c1ccc(CC)cc1)CC2 (stereo not shown) [Compound 37] | 35 |
| CCc1ccc(S(=O)(=O)NC2CCc3ccc(Nc4ncccc4C(=O)NCc4ccco4)cc32)cc1 (stereo not shown) [Compound 42] | 45 |
| O=C(NCCc1ccccc1)c1cccnc1Nc1ccc2c(c1)C(NS(=O)(=O)c1ccc(F)cc1)CC2 (stereo not shown) [Compound 58] | 27 |
| O=C(NCc1cccs1)c1cccnc1Nc1ccc2c(c1)C(NS(=O)(=O)c1ccc(F)cc1)CC2 (stereo not shown) [Compound 59] | 20 |

— US6849634B2, “Potassium channel inhibitors” (ICAgen, priority 2000, dated 2005)
